Experimental findings from the Bradley open melting point set (2014) are described below.

Where “and” joins values, the source holds several entries; their conditions need not be identical. Equal entries are not always repeated. Structures can show the parent of a compound that is named as a salt.

For `BrCBr` [Dibromomethane], the melting point (as a rule, the temperature of the solid-liquid transition) was -52 °C.
The result for `COc1cc(Cl)ccc1C(=O)O` [4-chloro-2-methoxybenzoic acid] reads 147 °C.
As to `CC(C)CC(=O)O` [3-methylbutanoic_acid], the melting point is -30 °C.
The figure for `COc1ccc(C(O)C(=O)O)cc1` (stereo unspecified) [4-methoxymandelic acid] is 107 °C; for `CCOC(=O)C(=O)C(=O)OCC` [diethyl ketomalonate] it is -70 °C; for `CNC(=O)c1cc([N+](=O)[O-])cc([N+](=O)[O-])c1` [benzamide, N-methyl-3,5-dinitro-] it is 149 °C.
The figure for `CC(=O)S[C@@H]1CC2=CC(=O)CC[C@]2(C)[C@H]2CC[C@@]3(C)[C@@H](CC[C@@]34CCC(=O)O4)[C@H]12` [Spironolactone] is 134 °C; for `N#Cc1ccc2[nH]ccc2c1` [indole-5-carbonitrile] it is 106 °C.
As to `O=C(Nc1ccc(/C=C/c2ccc(NC(=O)c3ccccc3)cc2)cc1)c1ccccc1` [N,N'-[(E)-ethene-1,2-diyldibenzene-4,1-diyl]dibenzamide], the melting point was found to be 253 °C.
The figure for `COc1cc(C(=O)O)ccc1O` [vanillic acid] is 214 °C.
The figure for `O=C(O)C(O)[C@H](O)C(=O)O` (stereo in doubt) [D-tartaric acid] is 169 °C.
`CCC(=O)OC` [Methyl propionate] had a melting point of -88 °C.
The result for `CCCCCCCCCCCCCCC(C)O` (stereo unspecified) [2-hexadecanol] reads 47 °C.
The figure for `Cc1ccc(C(=O)O)cc1` [4-methylbenzoic acid] is 180 °C and 181 °C; for `O=C(O)CCCC(=O)O` [glutaric acid] it is 97 °C.
The result for `COC(=O)c1ccc(O)cc1` [Methyl 4-hydroxybenzoate] reads 131 °C; that for `N#Cc1cccc(-c2ccccc2)c1` [m-cyanobiphenyl], 49 °C; that for `CC(=O)OC(C)=O` [acetic anhydride], -73 °C.
Compound `C=C(C)CC(C)(C)C` [2,4,4-trimethyl-1-pentene] had a melting point of -93 °C.
The result for `Clc2cccc(Cl)c2N=C1/NCCN1` [clonidine] reads 130 °C.
Regarding `COC(=O)C1C(c2ccccc2)C(C#N)=C(C(SC)SC)C1(O)c1ccccc1` (stereo unspecified), the melting point is 165 °C.
The compound `CC(=O)Nc1ccc(/C=C/c2ccc(NC(C)=O)cc2)cc1` [N,N'-[(E)-ethene-1,2-diyldibenzene-4,1-diyl]diacetamide] had a melting point of 172 °C.
The result for `CN(C)C1=NC(=O)C(c2ccccc2)O1` (stereo unspecified) [thozalinone] reads 133 °C.
As for `CC(=O)c1ccc(O)c(C(N)=O)c1` [5-acetylsalicylamide], the melting point stood at 221 °C.
The compound `COc1ccc2ccccc2c1C=O` [2-methoxy-1-naphthaldehyde] returned a melting point of 84 °C.
`CCNCCO` [2-(ethylamino)ethanol] displayed a melting point of -9 °C.
The figure for `Brc1ccc(Br)cc1` [p-dibromobenzene] is 88 °C; for `O=C(Cl)c1cncc(Br)c1` [5-bromonicotinoyl chloride] it is 73 °C.
Compound `O=C(c1ccccc1)c1ccc(Br)cc1` [p-bromobenzophenone] registered a melting point of 82 °C.
As to `CC1(C)CC(=O)C(=NNc2ccccc2[N+](=O)[O-])C(=O)C1`, the melting point amounted to 140 °C.
The result for `c1ccc2nc3ccccc3nc2c1` [phenazine] reads 176 °C; that for `CCN(CC)c1ccccc1` [n,n-diethylaniline], -38 °C; that for `O=C(O)CCCC[C@@H]1SC[C@@H]2NC(=O)N[C@@H]21` [Biotin], 232 °C.
`CCCCCCC#N` [hexyl_cyanide]: the melting point was -63 °C.
Compound `CCOP(O)OCC` [diethyl phosphite] gave a melting point of -70 °C.
The result for `C1COCCN1` [morpholine] reads -5 °C.
`O=C(O)c1cc([N+](=O)[O-])ccc1Cl` [2-chloro-5-nitrobenzoic acid] returned a melting point of 167 °C.
In the case of `Oc1ccc(Cl)cc1` [p-chlorophenol], the melting point was 44 °C.
In turn, `CCOC(=O)N1c2ccccc2C=CC1OCC` (stereo unspecified) [2-ethoxy-1-ethoxycarbonyl-1,2-dihydroquinoline] had a melting point of 65 °C.
The result for `CC(C)Cl` [2-chloropropane] reads -117 °C; that for `CCCN(CCC)C(=O)Cc1c(-c2ccc(Cl)cc2)nc2ccc(Cl)cn12` [alpidem], 140 °C; that for `[O-][I+3]([O-])([O-])O` [Periodic acid], 122 °C.
The result for `Nc1cccc(CO)c1` [m-amino_benzyl_alcohol] reads 95 °C; that for `Nc1ccn([C@@H]2O[C@H](CO)[C@@H](O)[C@H]2O)c(=O)n1` [Cytidine], 210 °C.
The result for `CC#CCOS(=O)(=O)c1ccc(C)cc1` [2-butynyl p-toluenesulfonate] reads 48 °C.
`O=C(O)CCC(=O)c1ccc(-c2ccccc2)cc1` [Fenbufen] displayed a melting point of 186 °C.
As to `CCCC(C)C1(CC)C(=O)NC(=O)NC1=O` (stereo unspecified) [pentobarbital], the melting point turned out to be 130 °C.
On to `COc1cc(CNC(=O)CCCC/C=C/C(C)C)ccc1O` [(6E)-N-(4-Hydroxy-3-methoxybenzyl)-8-methylnon-6-enamide], for which the melting point stood at 66 °C.
Turning to `N/N=C/c1ccccc1O` [salicylaldehyde hydrazone], the melting point was 97 °C.
As to `CC(C)c1ccccc1` [cumene], the melting point is -96 °C.
The compound `Cc1ccc(C(=O)O)cc1` [p-toluic acid] returned a melting point of 180 °C.
In the case of `Cc1ccnc(NS(=O)(=O)c2ccc(N)cc2)n1` [sulfamerazine], the melting point is 236 °C.
`O=C1NC(=O)c2cc([N+](=O)[O-])ccc21` [4-nitrophthalimide] gave a melting point of 198 °C.
The figure for `COc1ccc(C(C)C)cc1B(O)O` [5-isopropyl-2-methoxybenzeneboronic acid] is 86 °C; for `SCCS` [1,2-ethanedithiol] it is -41 °C; for `Cc1ccc(Oc2ccccc2C=O)cc1` [2-(p-tolyloxy)benzaldehyde] it is 55 °C.
The figure for `CCCCCC(=O)O` [Hexanoic acid] is -3 °C; for `CC1(C)S[C@@H]2[C@H](NC(=O)[C@H](N)c3ccccc3)C(=O)N2[C@H]1C(=O)O` [ampicillin] it is 200 °C.
In turn, `Cc1ccc(C)c(C)c1` [1,2,4-Trimethylbenzene] gave a melting point of -43.8 °C.
Turning to `O=C(CC(=O)c1ccccc1)c1ccccc1` [1,3-Diphenylpropane-1,3-dione], the melting point turned out to be 77 °C.
The result for `COc1ccccc1NC(=O)c1cnc(C(C)(C)C)c(Cl)n1` reads 119 °C.
The figure for `CCCCCCC(O)CO` (stereo unspecified) [1,2-octanediol] is 31 °C; for `CCCC(=O)Nc1ccc(OCC(O)CNC(C)C)c(C(C)=O)c1` (stereo unspecified) [acebutolol] it is 119 °C.
The figure for `O=C(O)c1cc(Cl)sc1Cl` [2,5-dichlorothiophene-3-carboxylic acid] is 148 °C; for `CC1=CC(=O)c2ccccc2C1=O` [2-methyl-1,4-naphthoquinone] it is 106 °C.
In turn, `CC(=O)c1ccc(N=C=S)cc1` [4-acetylphenyl isothiocyanate] showed a melting point of 79 °C.
The result for `Cl/C=C\Cl` [(Z)-1,2-Dichloroethene] reads -80 °C; that for `Oc1cccc(I)c1` [3-iodophenol], 41 °C; that for `Clc1cccc(Cl)c1` [1,3-dichlorobenzene], -25 °C.
The figure for `CCOS(=O)(=O)OCC` [Diethyl sulfate] is -24 °C.
The figure for `CCCCCCCCSc1cc(N(NC(=O)OC(C)(C)C)C(=O)OC(C)(C)C)cc(SCCCCCCCC)c1SCCCCCCCC` is 51.5 °C.
Take `Nc1ncccc1O` [2-amino-3-hydroxypyridine]: the melting point stood at 170 °C.
The result for `CC(=O)c1ccc(S(=O)(=O)NC(=O)NC2CCCCC2)cc1` [acetohexamide] reads 188 °C; that for `CC(C)(C)N` [2-Methylpropan-2-amine], -67 °C; that for `CNC(=O)N(C)c1nnc(C(F)(F)F)s1` [Thiazafluron], 136 °C.
The figure for `COc1ccc(C(=O)O)cc1` [p-anisic_acid] is 184 °C; for `Nc1nc(-c2ccc(Br)cc2)cs1` [2-amino-4-(4-bromophenyl)thiazole] it is 184 °C.
The result for `Cc1ccc(C)c2c1C(=O)OC2O` (stereo unspecified) [3-hydroxy-4,7-dimethyl-2-benzofuran-1(3H)-one] reads 158 °C.
`O=[N+]([O-])c1ccc(CS(=O)(=O)Cl)cc1` [4-nitro-alpha-toluenesulfonyl chloride]: the melting point is 92 °C.
For `CCCOC(C)=O` [Propyl acetate], the melting point was -95 °C.
The figure for `CCOC(=O)CC(=O)OCC` [Diethyl malonate] is -50 °C.
For the compound `CN1C(=O)CCC(N2C(=O)c3ccccc3C2=O)C1=O` (stereo unspecified) [N-Methylthalidomide], the melting point amounted to 159 °C.
The figure for `O=C(O)c1ccccc1[N+](=O)[O-]` [2-Nitrobenzoic acid] is 147 °C; for `CCC(=O)c1ccccc1` [propiophenone] it is 19 °C.
The compound `CC1=C(C)C(C)N=N1` (stereo unspecified) [1H-pyrazole, 3,4,5-trimethyl-] registered a melting point of 138 °C.
For the compound `Clc1ccccn1` [2-chloropyridine], the melting point was -46 °C.
The figure for `OCCc1ccccc1` [2-Phenyl-Ethanol] is -27 °C; for `OB(O)c1ccc(OCc2ccccc2)nc1` [6-benzyloxypyridine-3-boronic acid] it is 109 °C.
The compound `CN1C(=O)c2ccccc2C1C=C(c1ccccc1)c1ccccc1` (stereo unspecified) [3-(2,2-Diphenylethenyl)-2-methylisoindolin-1-one] displayed a melting point of 147 °C.
As to `C[C@]12CCC(=O)C[C@H]1CC[C@@H]1[C@@H]2CC[C@]2(C)C(=O)CC[C@@H]12` [(5beta)-Androstane-3,17-dione], the melting point was 147 °C.
`CC(=O)O[Si](C)(OC(C)=O)OC(C)=O` [triacetoxy(methyl)silane]: the melting point was 43 °C.
